The values below come from the NIST ThermoML archive (doi:10.1016/j.fluid.2015.09.036).

The nature of this data set: wn = mass fraction of the nth substance listed. Particulars: 101.3 kPa, Liquid, Vibrating tube method.

Each structure is given as a SMILES string. Numbers after ± are expanded uncertainties.

For `O=C(O)CCCC(=O)O` [1,5-pentanedioic acid] + CCO, the mass density by setting is: (283.15 K, w1 = 0.1926) 967.2 ± 0.8 kg/m3; (303.15 K, w1 = 0.4065) 999.4 ± 1.6 kg/m3; (313.15 K, w1 = 0.5552) 1005.4 ± 1.8 kg/m3.
Take `O=C(O)CCCCC(=O)O` [1,6-hexanedioic acid] + CCO: the mass density (283.15 K, w1 = 0.06948) stood at 841 ± 0.3 kg/m3; the mass density (303.15 K, w1 = 0.1384) is 855.2 ± 0.5 kg/m3; the mass density (313.15 K, w1 = 0.1853) came out at 876.9 ± 0.7 kg/m3.
